Results: patent publication US20240000772A1, “MICROSPHERE FORMULATIONS COMPRISING NALTREXONE AND METHODS FOR MAKING AND USING THE SAME” (Oakwood Laboratories, LLC, priority 2021, published 2024)
Values after ≈ are worked out from the molar mass of the structure shown. Where a name gives a salt, the structure may show the parent alone. Read-outs that look alike come from different tables or passages of the source.

Legend:
[1] = Solubility of naltrexone in solvents; assay type: physicochemical
Source text: (§1) In one aspect, the naltrexone is a free base.
In another aspect, the naltrexone is an HCl salt.

pKa of naltrexone = assay type: physicochemical
Source text: as §1

For `O=C1CC[C@@]2(O)[C@H]3Cc4ccc(O)c5c4[C@@]2(CCN3CC2CC2)[C@H]1O5` [naltrexone HCl salt], the solubility ([1]; naltrexone HCl salt, in water, read-out: water solubility) was about 100 mg/mL.
In the case of `O=C1CC[C@@]2(O)[C@H]3Cc4ccc(O)c5c4[C@@]2(CCN3CC2CC2)[C@H]1O5` [naltrexone, Naltrexone], the solubility ([1]; benzyl alcohol, organic solvent or mixture, naltrexone free base, in BA, read-out: benzyl alcohol (BA) solubility) is reported as over 250 mg/mL, the solubility ([1]; dichloromethane, organic solvent or mixture, naltrexone free base, in DCM, read-out: dichloromethane (DCM) solubility) is reported as 100 mg/mL (≈ 293 mM) and the solubility ([1]; ethyl acetate, organic solvent or mixture, naltrexone free base, in EA, read-out: ethyl acetate (EA) solubility) is reported as 26 mg/mL (≈ 76.2 mM). For the same compound, the pKa (pKa of naltrexone) was 8.4.
